US8252935B2, “Piperidinyl and piperazinyl modulators of γ-secretase” (Janssen Pharmaceutica N.V., priority 2007, dated 2012)

Molecular target: γ-secretase (Homo sapiens, UniProt P49768)
Assay: Screening for γ-secretase-modulating activity in SKNBE2 cells carrying APP 695 wild type (assay of Citron et al 1997)
Assay type: cell-based
Details: SKNBE2, @ 1 uM; SKNBE2 cells carrying the APP 695 wild type
Description: Screening was carried out using SKNBE2 cells carrying the APP 695—wild type, grown in DMEM/NUT-mix F12 (HAM) provided by Gibco (cat no. 31330-38) containing 5% Serum/Fe supplemented with 1% non-essential amino acids. Cells were grown to near confluency. The screening was performed using the assay as described in Citron et al (1997) Nature Medicine 3: 67.

Structure (SMILES)	inhibition at 1 µM [%]
CC(C)CC(C(=O)O)c1cc(-c2ccc(C(F)(F)F)cc2)cc(C2CCCN(C(c3ccccc3)c3ccccc3)C2)c1 (centres unmarked) [Example 54, 2-[5-(1-Benzhydryl-piperidin-3-yl)-4′-trifluoromethyl-biphenyl-3-yl]-4-methyl-pentanoic acid]	80
COCCCC1CCCCN1c1cc(-c2ccc(C(F)(F)F)cc2)cc([C@@H](CC(C)C)C(=O)O)c1 (stereo partly drawn) [Example 60, (R)-2-{5-[2-(3-Methoxy-propyl)-piperidin-1-yl]-4′-trifluoromethyl-biphenyl-3-yl}-4-methyl-pentanoic acid]	52
CC(C)CC(C(=O)O)c1cc(-c2ccc(C(F)(F)F)cc2)cc(C2CCNCC2)c1 (centres unmarked) [Example 68, 4-Methyl-2-(5-piperidin-4-yl-4′-trifluoromethyl-biphenyl-3-yl)-pentanoic acid]	2
CC(C)/C=C/CN1CCC(c2cc(-c3ccc(C(F)(F)F)cc3)cc(C(CC(C)C)C(=O)O)c2)CC1 (centres unmarked) [Example 69, 4-Methyl-2-{5-[1-(4-methyl-pent-2-enyl)-piperidin-4-yl]-4′-trifluoromethyl-biphenyl-3-yl}-pentanoic acid]	8
CC(C)CC(C(=O)O)c1cc(-c2ccc(C(F)(F)F)cc2)cc(C2CC[N+](C)(C)CC2)c1 (centres unmarked) [Example 73, 2-[5-(1,1-Dimethyl-piperidin-4-yl)-4′-trifluoromethyl-biphenyl-3-yl]-4-methyl-pentanoic acid]	9
CC(C)CC(C(=O)O)c1cc(-c2ccc(C(F)(F)F)cc2)cc(C2CCN(C3CCCCC3)CC2)c1 (centres unmarked) [Example 74, 2-[5-(1-Cyclohexyl-piperidin-4-yl)-4′-trifluoromethyl-biphenyl-3-yl]-4-methyl-pentanoic acid]	4
CC(C)CCN1CCC(c2cc(-c3ccc(C(F)(F)F)cc3)cc(C(CC(C)C)C(=O)O)c2)CC1 (centres unmarked) [Example 76, 4-Methyl-2-{5-[1-(3-methyl-butyl)-piperidin-4-yl]-4′-trifluoromethyl-biphenyl-3-yl}-pentanoic acid]	11
CC(C)CCCN1CCC(c2cc(-c3ccc(C(F)(F)F)cc3)cc(C(CC(C)C)C(=O)O)c2)CC1 (centres unmarked) [Example 77, 4-Methyl-2-{5-[1-(4-methyl-pentyl)-piperidin-4-yl]-4′-trifluoromethyl-biphenyl-3-yl}-pentanoic acid]	36
CC(C)CC(C(=O)O)c1cc(-c2ccc(C(F)(F)F)cc2)cc(N2CCN(c3ccc(F)c(F)c3)CC2)c1 (centres unmarked) [Example 79, 2-{5-[4-(3,4-Difluoro-phenyl)-piperazin-1-yl]-4′-trifluoromethyl-biphenyl-3-yl}-4-methyl-pentanoic acid]	28
CC(C)CC(C(=O)O)c1cc(-c2ccc(C(F)(F)F)cc2)cc(N2CCNCC2)c1 (centres unmarked) [Example 82, 4-Methyl-2-(5-piperazin-1-yl-4′-trifluoromethyl-biphenyl-3-yl)-pentanoic acid]	5
Cc1ccccc1CC1CCCCN1c1cc(-c2ccc(C(F)(F)F)cc2)cc(C(CC(C)C)C(=O)O)c1 (centres unmarked) [Example 83, 4-Methyl-2-{5-[2-(2-methyl-benzyl)-piperidin-1-yl]-4′-trifluoromethyl-biphenyl-3-yl}-pentanoic acid]	44

Results, then the compound that gave them:

inhibition at 1 µM [%]	Structure (SMILES)
58	CC(C)CC(C(=O)O)c1cc(-c2ccc(C(F)(F)F)cc2)cc(C2CCCN(Cc3cc(C(C)(C)C)cc(C(C)(C)C)c3)C2)c1 (centres unmarked) [Example 52, 2-{5-[1-(3,5-Di-tert-butyl-benzyl)-piperidin-3-yl]-4′-trifluoromethyl-biphenyl-3-yl}-4-methyl-pentanoic acid]
57	CC(C)CC(C(=O)O)c1cc(-c2ccc(C(F)(F)F)cc2)cc(C2CCCN(Cc3cc(C(F)(F)F)cc(C(F)(F)F)c3)C2)c1 (centres unmarked) [Example 53, 2-{5-[1-(3,5-Bis-trifluoromethyl-benzyl)-piperidin-3-yl]-4′-trifluoromethyl-biphenyl-3-yl}-4-methyl-pentanoic acid]
45	CC(C)CC(C(=O)O)c1cc(-c2ccc(C(F)(F)F)cc2)cc(C2CCCN(c3ccc(F)c(F)c3)C2)c1 (centres unmarked) [Example 55, 2-{5-[1-(3,4-Difluoro-phenyl)-piperidin-3-yl]-4′-trifluoromethyl-biphenyl-3-yl}-4-methyl-pentanoic acid]
40	CC(C)CC(C(=O)O)c1cc(-c2ccc(C(F)(F)F)cc2)cc(C2CCCN(c3ccccc3)C2)c1 (centres unmarked) [Example 58, 4-Methyl-2-[5-(1-phenyl-piperidin-3-yl)-4′-trifluoromethyl-biphenyl-3-yl]-pentanoic acid]
37	CC(C)CC(C(=O)O)c1cc(-c2ccc(C(F)(F)F)cc2)cc(C2CCCN(c3ccc(C(F)(F)F)cc3)C2)c1 (centres unmarked) [Example 59, 4-Methyl-2-{4′-trifluoromethyl-5-[1-(4-trifluoromethyl-phenyl)-piperidin-3-yl]-biphenyl-3-yl}-pentanoic acid]
5	CC(C)CCN1CCCC(c2cc(-c3ccc(C(F)(F)F)cc3)cc(C(CC(C)C)C(=O)O)c2)C1 (centres unmarked) [Example 62, 4-Methyl-2-{5-[1-(3-methyl-butyl)-piperidin-3-yl]-4′-trifluoromethyl-biphenyl-3-yl}-pentanoic acid]
0	CCN1CCCC(c2cc(-c3ccc(C(F)(F)F)cc3)cc(C(CC(C)C)C(=O)O)c2)C1 (centres unmarked) [Example 66, 2-[5-(1-Ethyl-piperidin-3-yl)-4′-trifluoromethyl-biphenyl-3-yl]-4-methyl-pentanoic acid]
49	CC(C)CC(C(=O)O)c1cc(-c2ccc(C(F)(F)F)cc2)cc(C2CCCN(Cc3ccccc3)C2)c1 (centres unmarked) [Example 67, 2-[5-(1-Benzyl-piperidin-3-yl)-4′-trifluoromethyl-biphenyl-3-yl]-4-methyl-pentanoic acid]
47	CC(C)CC(C(=O)O)c1cc(-c2ccc(C(F)(F)F)cc2)cc(C2CCN(Cc3cc(F)cc(C(F)(F)F)c3)CC2)c1 (centres unmarked) [Example 70, 2-{5-[1-(3-Fluoro-5-trifluoromethyl-benzyl)-piperidin-4-yl]-4′-trifluoromethyl-biphenyl-3-yl}-4-methyl-pentanoic acid]
51	CC(C)CCC(c1ccc(C(F)(F)F)cc1)N1CCC(c2cc(-c3ccc(C(F)(F)F)cc3)cc(C(CC(C)C)C(=O)O)c2)CC1 (centres unmarked) [Example 71, 4-Methyl-2-(5-{1-[4-methyl-1-(4-trifluoromethyl-phenyl)-pentyl]-piperidin-4-yl}-4′-trifluoromethyl-biphenyl-3-yl)-pentanoic acid]
6	CC(C)CC(C(=O)O)c1cc(-c2ccc(C(F)(F)F)cc2)cc(C2CCN(c3ccc(C(F)(F)F)cc3)CC2)c1 (centres unmarked) [Example 72, 4-Methyl-2-{4′-trifluoromethyl-5-[1-(4-trifluoromethyl-phenyl)-piperidin-4-yl]-biphenyl-3-yl}-pentanoic acid]
46	CC(C)CC(C(=O)O)c1cc(-c2ccc(C(F)(F)F)cc2)cc(C2CCN(Cc3cc(F)cc(F)c3)CC2)c1 (centres unmarked) [Example 75, 2-{5-[1-(3,5-Difluoro-benzyl)-piperidin-4-yl]-4′-trifluoromethyl-biphenyl-3-yl}-4-methyl-pentanoic acid]
35	CC(C)CC(C(=O)O)c1cc(-c2ccc(C(F)(F)F)cc2)cc(C2CCN(Cc3ccc(C(F)(F)F)cc3)CC2)c1 (centres unmarked) [Example 78, 4-Methyl-2-{4′-trifluoromethyl-5-[1-(4-trifluoromethyl-benzyl)-piperidin-4-yl]-biphenyl-3-yl}-pentanoic acid]
35	CC(C)CC(C(=O)O)c1cc(-c2ccc(C(F)(F)F)cc2)cc(N2CCN(c3cccc(C(F)(F)F)c3)CC2)c1 (centres unmarked) [Example 80, 4-Methyl-2-{4′-trifluoromethyl-5-[4-(3-trifluoromethyl-phenyl)-piperazin-1-yl]-biphenyl-3-yl}-pentanoic acid]
63	CC(C)CC(C(=O)O)c1cc(-c2ccc(C(F)(F)F)cc2)cc(N2CCN(c3ccc(C(F)(F)F)cc3)CC2)c1 (centres unmarked) [Example 81, 4-Methyl-2-{4′-trifluoromethyl-5-[4-(4-trifluoromethyl-phenyl)-piperazin-1-yl]-biphenyl-3-yl}-pentanoic acid]
